Test results as given in the supplement of paper PMC4932681.
Counter-ions that a name gives are not always drawn.

Columns and labels:
Assay in all cases: viability inhibition at highest dose (% inhibition); higher = more growth inhibition
[1] = test system: BT-474 Tam1; conditions: 4-OH-tamoxifen in medium 1 µM; 72 h
How it was run: (§1)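 Drug sensitivity score, relative IC50 as the curve midpoint, and top-dose inhibition were derived from logistic dose–response fits in the Breeze pipeline. These fits used CellTiter-Glo viability, read on a PHERAstar and normalised to vehicle-only and positive controls. Breast cancer cell lines and resistant derivatives had been incubated for 72 h at 37 °C in 384-well plates holding library drugs at five concentrations spanning a 10 000-fold range. Resistant lines were grown in medium with 1 μM of the selecting drug.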

[2] = test system: BT-474 Tam2; conditions: 4-OH-tamoxifen in medium 1 µM; 72 h
How it was run: as §1

[3] = test system: BT-474; conditions: 72 h
How it was run: as §1

[4] = test system: MCF-7 Tam1; conditions: 4-OH-tamoxifen in medium 1 µM; 72 h
How it was run: as §1

[5] = test system: MCF-7; conditions: 72 h
How it was run: as §1

[6] = test system: T-47D Tam1; conditions: 4-OH-tamoxifen in medium 1 µM; 72 h
How it was run: as §1

[7] = test system: T-47D Tam2; conditions: 4-OH-tamoxifen in medium 1 µM; 72 h
How it was run: as §1

[8] = test system: T-47D; conditions: 72 h
How it was run: as §1

[9] = test system: ZR-75-1 Tam1; conditions: 4-OH-tamoxifen in medium 1 µM; 72 h
How it was run: as §1

[10] = test system: ZR-75-1 Tam2; conditions: 4-OH-tamoxifen in medium 1 µM; 72 h
How it was run: as §1

[11] = test system: ZR-75-1; conditions: 72 h
How it was run: as §1

Structure (SMILES) | viability inhibition at highest dose [1] | viability inhibition at highest dose [2] | viability inhibition at highest dose ([3]; 4-OH-tamoxifen in medium 0 µM) | viability inhibition at highest dose ([3]; 4-OH-tamoxifen in medium 1 µM) | viability inhibition at highest dose [4] | viability inhibition at highest dose ([5]; 4-OH-tamoxifen in medium 0 µM) | viability inhibition at highest dose ([5]; 4-OH-tamoxifen in medium 1 µM) | viability inhibition at highest dose [6] | viability inhibition at highest dose [7] | viability inhibition at highest dose ([8]; 4-OH-tamoxifen in medium 0 µM) | viability inhibition at highest dose ([8]; 4-OH-tamoxifen in medium 1 µM) | viability inhibition at highest dose [9] | viability inhibition at highest dose [10] | viability inhibition at highest dose ([11]; 4-OH-tamoxifen in medium 0 µM) | viability inhibition at highest dose ([11]; 4-OH-tamoxifen in medium 1 µM)
CC(C)(C)c1cc(NC(=O)Nc2ccc(-c3cn4c(n3)sc3cc(OCCN5CCOCC5)ccc34)cc2)no1 [Quizartinib (AC220)] (drug 1000 nM) | -3.77 | -5.01 | -0.626 | -13.2 | 3.09 | -2.81 | 6.24 | 11.5 | 15.8 | 11 | 9.31 | -2.41 | 5.08 | -17 | 8.56
Cn1c(Nc2ccc(C(F)(F)F)cc2)nc2cc(Oc3ccnc(-c4ncc(C(F)(F)F)[nH]4)c3)ccc21 [RAF265] (drug 1000 nM) | 4.22 | 9 | -9.23 | 7.76 | -5.31 | -2.02 | -1.12 | 22.5 | 2.98 | 12.4 | -5.82 | -1.02 | 11.6 | 2.38 | -4.76
CNC(=O)c1ccc(N2C(=S)N(c3ccc(C#N)c(C(F)(F)F)c3)C(=O)C23CCC3)cc1F [RD162] (drug 10000 nM) | 13.8 | 13.7 | -4.36 | -3.06 | 3.13 | -8.95 | 8.98 | 3.92 | 3.39 | -17.8 | 17.8 | 2.17 | 1.22 | -4.4 | 3.37
O=C(c1ccc(OCCN2CCCCC2)cc1)c1c(-c2ccc(O)cc2)sc2cc(O)ccc12 [Raloxifene  HCl] (drug 10000 nM) | 44.3 | 34.8 | 22.8 | 54 | 21.5 | 33.2 | 33.8 | 12.6 | 25.9 | 11.3 | 9.48 | 9.11 | 2.72 | 11.9 | 13.3
COc1cc(F)c(F)c(Nc2ccc(I)cc2F)c1NS(=O)(=O)C1(C[C@H](O)CO)CC1 [Refametinib (RDEA119)] (drug 10000 nM) | 36.3 | 14 | 9.83 | 54.3 | 33.1 | 44.2 | 39.9 | 31.2 | 22 | 24.3 | 12.7 | 8.84 | 10.6 | 20.6 | 14.9
CNC(=O)c1cc(Oc2ccc(NC(=O)Nc3ccc(Cl)c(C(F)(F)F)c3)c(F)c2)ccn1 [Regorafenib (BAY 73-4506)] (drug 10000 nM) | 93.1 | 76.2 | 38 | 73 | 18.1 | 52.7 | 33.5 | 31.3 | 16.3 | 29.1 | 18.2 | 22.4 | 32.6 | 17 | 18.3
CO[C@H]1C[C@@H]2CC[C@@H](C)[C@@](O)(O2)C(=O)C(=O)N2CCCC[C@H]2C(=O)O[C@H]([C@H](C)C[C@@H]2CC[C@@H](OP(C)(C)=O)[C@H](OC)C2)CC(=O)[C@H](C)/C=C(\C)[C@@H](O)[C@@H](OC)C(=O)[C@H](C)C[C@H](C)/C=C/C=C/C=C/1C [Ridaforolimus] (drug 100 nM) | 23.2 | 22 | 19.8 | 6.43 | 17.7 | 49.7 | 37.1 | 33.3 | 28.2 | 33.4 | 21.6 | 35.9 | 39.5 | 37.8 | 30.1
N[C@@H](CSC(c1ccccc1)(c1ccccc1)c1ccccc1)C(=O)O [S-trityl-L-cysteine] (drug 40000 nM) | 23.3 | -5.53 | -1.05 | 23.9 | -5.14 | 0.988 | 18.1 | 4.09 | 4.25 | 2.31 | 4.34 | 4.16 | 3.17 | 9.84 | 13
CC(C)(C)c1cnc(CSc2cnc(NC(=O)C3CCNCC3)s2)o1 [SNS-032] (drug 10000 nM) | 88.7 | 87.2 | 10.3 | 33.1 | 31.3 | 47.4 | 51.2 | 49.1 | 32 | 22.4 | 4.07 | 45.3 | 52.6 | 42.4 | 43.3
CN1CCN(CCOc2cc(OC3CCOCC3)c3c(Nc4c(Cl)ccc5c4OCO5)ncnc3c2)CC1 [Saracatinib] (drug 10000 nM) | 100 | 100 | 50.3 | 94.4 | 4.6 | 25.2 | 15 | 36.6 | 27.9 | 17.5 | -7.13 | -10.5 | -17.9 | -37.6 | -19.4
CC[C@H](CO)Nc1nc(NCc2ccccc2)c2ncn(C(C)C)c2n1 [Seliciclib (Roscovitine)] (drug 10000 nM) | -2.39 | 3.77 | -9.62 | -8.52 | 13.8 | 29 | 17.2 | 24.8 | 23.6 | -4.76 | -17.1 | -5.94 | -4.53 | -12.8 | -9.91
Cn1cnc2c(F)c(Nc3ccc(Br)cc3Cl)c(C(=O)NOCCO)cc21 [Selumetinib  (AZD6244)] (drug 10000 nM) | 21.1 | -2.62 | -0.443 | 29.7 | 11.7 | 13.7 | 16.6 | 19.9 | 10.8 | -3.23 | -12.3 | 2.2 | 3.53 | -8.87 | -4.69
CO[C@H]1C[C@@H]2CC[C@@H](C)[C@@](O)(O2)C(=O)C(=O)N2CCCC[C@H]2C(=O)O[C@H]([C@H](C)C[C@@H]2CC[C@@H](O)[C@H](OC)C2)CC(=O)[C@H](C)/C=C(\C)[C@@H](O)[C@@H](OC)C(=O)[C@H](C)C[C@H](C)/C=C/C=C/C=C/1C [Sirolimus (Rapamycin)] (drug 1000 nM) | 21.7 | 24.1 | 17.8 | 13.2 | 7.86 | 45.5 | 35.8 | 34.8 | 26.9 | 28.5 | 13.8 | 33.3 | 36.3 | 38.1 | 31
C=CCN(/C=C1/C(=O)O[C@H](COC)[C@@]2(C)C1=C(O)C(=O)C1=C2[C@H](OC(C)=O)C[C@]2(C)C(=O)CC[C@@H]12)CC=C [Sonolisib (PX-866)] (drug 10000 nM) | -5.08 | -8.14 | -6.97 | -17.3 | -2.1 | -6.01 | 11.3 | 9.15 | 9.95 | -6.68 | 0.837 | 15.2 | 13.3 | 7.54 | 18.1
CNC(=O)c1cc(Oc2ccc(NC(=O)Nc3ccc(Cl)c(C(F)(F)F)c3)cc2)ccn1 [Sorafenib] (drug 1000 nM) | 12.1 | -4.18 | -8.19 | -5.87 | -2.56 | 4.04 | 5.41 | -11.3 | 4.98 | -13.3 | -7.58 | -2.44 | -2.71 | -7.83 | 4.52
CN1CCN(c2nc(C3=C(c4c[nH]c5ccccc45)C(=O)NC3=O)c3ccccc3n2)CC1 [Sotrastaurin] (drug 10000 nM) | 65.2 | 25.2 | 9.38 | 48.9 | 8.16 | 21.3 | 10 | 8.91 | 6.92 | -8.99 | 1.91 | 9.64 | 7.03 | 6.75 | 14.4
CC(C)n1cnc2c(NCCc3ccc(O)cc3)nc(-c3csc4ccccc34)nc21 [StemRegenin 1] (drug 10000 nM) | 95.2 | 89 | 25.1 | 96.4 | 18.6 | 51.4 | 65.3 | 41.9 | 54.1 | 35.4 | 50.4 | 19.8 | 24.2 | 8.1 | 26.6
CN(N=O)C(=O)N[C@@H](C=O)[C@@H](O)[C@H](O)[C@H](O)CO [Streptozocin] (drug 10000 nM) | -7.72 | -7.21 | -7.13 | 3.07 | -3.41 | -9.93 | -7.59 | -3.33 | 9.65 | -10.8 | -3.95 | 1.17 | -12.2 | -9.82 | 2.7
Cn1c(=O)c(F)c(Nc2ccc(I)cc2F)c2c(=O)n(C[C@@H](O)CO)cnc21 [TAK-733] (drug 1000 nM) | 7.81 | 14.3 | 3.01 | 18.7 | 13.8 | 16.8 | 22.9 | 25.4 | 16.5 | -7.47 | -14.5 | 0.97 | -5.15 | -7.07 | -1.35
CCS(=O)(=O)c1cccc(-c2cc(C(=O)NC3CCN(C)CC3)c(C)c3[nH]c4ncc(C)cc4c23)c1 [TAK-901] (drug 1000 nM) | 30.7 | 25.1 | -6.02 | 30.4 | 9.8 | 16.5 | 24.8 | 66.5 | 34.6 | 40.7 | 18.2 | -9.15 | -10.7 | -12.6 | -15.9
Cc1cc(C(C)Nc2ccccc2)c2nc(N3CCOCC3)cc(=O)n2c1 (stereo not given) [TGX-221] (drug 10000 nM) | 29 | 42.5 | 9.95 | 25.3 | 9.33 | 21.3 | 25.4 | 12.4 | 15.9 | 8.41 | 24.1 | 49 | 51.8 | 52 | 45.3
CC(=O)Nc1ccc(C(=O)Nc2ccccc2N)cc1 [Tacedinaline (CI-994)] (drug 1000 nM) | -4.04 | -4.77 | 1.78 | -3.82 | 0.399 | -10.9 | -11.9 | 6.74 | 15.3 | 0.774 | 11.3 | -0.987 | 6.17 | -0.612 | 5.35
C=CC[C@@H]1/C=C(\C)C[C@H](C)C[C@H](OC)[C@H]2O[C@@](O)(C(=O)C(=O)N3CCCC[C@H]3C(=O)O[C@H](/C(C)=C/[C@@H]3CC[C@@H](O)[C@H](OC)C3)[C@H](C)[C@@H](O)CC1=O)[C@H](C)C[C@@H]2OC [Tacrolimus (FK 506)] (drug 10000 nM) | 46.6 | 35 | 8.63 | 39.4 | 18.8 | 25.3 | 37.4 | 27.2 | 23.9 | 5.71 | 3.68 | 15.5 | 11.5 | -3.64 | 16
COc1cc(Nc2ncc(F)c(Nc3ccc4c(n3)NC(=O)C(C)(C)O4)n2)cc(OC)c1OC [Tamatinib (R406)] (drug 10000 nM) | -6.1 | -9.51 | -9.68 | -22.1 | -9.69 | -1.78 | 4.31 | 14.3 | 9.45 | -10 | -10.3 | 0.732 | -2.25 | -7.27 | -4.27
CC/C(=C(\c1ccccc1)c1ccc(OCCN(C)C)cc1)c1ccccc1 [Tamoxifen citrate] (drug 10000 nM) | 95.3 | 93.8 | 35.7 | 91.4 | 28.6 | 10.6 | 78.6 | 15.1 | 50 | 4.58 | 10.2 | 17.8 | 26.3 | 9.17 | 38.8
